Laboratory results published in ChEMBL document CHEMBL1147635, “KMI-358 and KMI-370, highly potent and small-sized BACE1 inhibitors containing phenylnorstatine” (Bioorg Med Chem Lett, 2004).
*1 amine or outer side, *2 acyl side, *3 side chain or, on linkers, in order; H or OH if unused. Where a SMILES comes first, the peptide text is derived from it. [ ]: non-standard residue; d: D form. β3hPhe(2R-OH) = O=C([C@H](O)[C@H](Cc1ccccc1)N[*:1])[*:2]; Dap = NC[C@H](N)C(=O)O; CO = O=C([*:1])[*:2]

Target: T1, Beta-secretase 1 (Homo sapiens, UniProt P56817)
Test: Inhibitory concentration of compound against Beta-secretase 1 was evaluated

T1 sequence (P56817 whole entry): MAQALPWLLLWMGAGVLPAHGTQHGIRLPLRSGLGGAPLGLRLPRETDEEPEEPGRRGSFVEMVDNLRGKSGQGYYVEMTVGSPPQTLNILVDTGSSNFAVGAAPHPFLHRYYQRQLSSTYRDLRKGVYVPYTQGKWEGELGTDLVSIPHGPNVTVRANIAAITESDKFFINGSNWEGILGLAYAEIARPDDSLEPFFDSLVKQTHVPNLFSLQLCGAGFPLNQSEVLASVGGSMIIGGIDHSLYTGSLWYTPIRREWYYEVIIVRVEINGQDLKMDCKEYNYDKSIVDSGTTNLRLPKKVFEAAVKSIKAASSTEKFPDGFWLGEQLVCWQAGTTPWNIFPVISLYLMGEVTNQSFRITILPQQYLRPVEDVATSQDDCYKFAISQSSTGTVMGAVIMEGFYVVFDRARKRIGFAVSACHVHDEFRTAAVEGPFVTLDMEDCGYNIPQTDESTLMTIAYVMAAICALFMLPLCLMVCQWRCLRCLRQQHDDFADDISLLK

IC50	SMILES
3.4 nM	CC(C)C[C@H](NC(=O)[C@@H](NC(=O)[C@@H](N)CNC(=O)O)C(C)C)C(=O)N[C@@H](Cc1ccccc1)[C@@H](O)C(=O)Nc1cc(C(=O)O)cc(C(=O)O)c1
55 nM	CC(C)C[C@H](NC(=O)[C@@H](NC(=O)[C@@H](N)CCC(=O)O)C(C)C)C(=O)N[C@@H](Cc1ccccc1)[C@@H](O)C(=O)Nc1cc(C(=O)O)cc(C(=O)O)c1
16 nM	CC(C)C[C@H](NC(=O)[C@@H](NC(=O)[C@@H](N)CNC(=O)O)C(C)C)C(=O)N[C@@H](Cc1ccccc1)[C@@H](O)C(=O)Nc1cccc(C(=O)O)c1
84 nM	CC(C)C[C@H](NC(=O)[C@@H](NC(=O)[C@@H](N)CNC(=O)O)C(C)C)C(=O)N[C@@H](Cc1ccccc1)[C@@H](O)C(=O)N[C@@H](CC(=O)O)C(=O)N[C@@H](C)C(=O)N[C@@H](CCC(=O)O)C(=O)O (H-[Dap](CO)VL[β3hPhe(2R-OH)]DAE-OH)

Target: T1, Beta-secretase 1
Test: Inhibition of Beta-secretase 1 at 2 uM concentration

inhibition	SMILES
> 90%	CC(C)C[C@H](NC(=O)[C@@H](NC(=O)[C@@H](N)CCC(=O)O)C(C)C)C(=O)N[C@@H](Cc1ccccc1)[C@@H](O)C(=O)Nc1cc(C(=O)O)cc(C(=O)O)c1
52%	CC(C)C[C@H](NC(=O)[C@@H](NC(=O)[C@@H](N)CCC(=O)O)C(C)C)C(=O)N[C@@H](Cc1ccccc1)[C@@H](O)C(=O)NCc1ccc(C(=O)O)cc1
64%	CC(C)C[C@H](NC(=O)[C@@H](NC(=O)[C@@H](N)CCC(=O)O)C(C)C)C(=O)N[C@@H](Cc1ccccc1)[C@@H](O)C(=O)NCc1cccc(C(=O)O)c1
30%	CC(C)C[C@H](NC(=O)[C@@H](NC(=O)[C@@H](N)CCC(=O)O)C(C)C)C(=O)N[C@@H](Cc1ccccc1)[C@@H](O)C(=O)NCc1ccccc1
79%	CC(C)C[C@H](NC(=O)[C@@H](NC(=O)[C@@H](N)CCC(=O)O)C(C)C)C(=O)N[C@@H](Cc1ccccc1)[C@@H](O)C(=O)Nc1ccc(C(=O)O)cc1
> 90%	CC(C)C[C@H](NC(=O)[C@@H](NC(=O)[C@@H](N)CNC(=O)O)C(C)C)C(=O)N[C@@H](Cc1ccccc1)[C@@H](O)C(=O)N[C@@H](CC(=O)O)C(=O)N[C@@H](C)C(=O)N[C@@H](CCC(=O)O)C(=O)O (H-[Dap](CO)VL[β3hPhe(2R-OH)]DAE-OH)
< 20%	CC(C)C[C@H](NC(=O)[C@@H](NC(=O)[C@@H](N)CC(=O)O)C(C)C)C(=O)N[C@@H](Cc1ccccc1)[C@@H](O)C(=O)N[C@@H](CC(=O)O)C(=O)N[C@@H](C)C(=O)N[C@@H](CCC(=O)O)C(=O)O (HELM PEPTIDE1{D.V.L.[O=C([C@H](O)[C@H](Cc1ccccc1)N[*:1])[*:2]].D.A.E}$$$$V2.0)
< 20%	CC(C)[C@H](NC(=O)[C@@H](N)CCC(=O)O)C(=O)NCC(=O)N[C@@H](Cc1ccccc1)[C@@H](O)C(=O)N[C@@H](CC(=O)O)C(=O)N[C@@H](C)C(=O)N[C@@H](CCC(=O)O)C(=O)N[C@@H](Cc1ccccc1)C(=O)O (HELM PEPTIDE1{E.V.G.[O=C([C@H](O)[C@H](Cc1ccccc1)N[*:1])[*:2]].D.A.E.F}$$$$V2.0)
< 90%	CC(C)C[C@H](NC(=O)[C@@H](NC(=O)[C@@H](N)CCC(=O)O)C(C)C)C(=O)N[C@@H](Cc1ccccc1)[C@@H](O)C(=O)N[C@@H](CC(=O)O)C(=O)N[C@@H](C)C(=O)N[C@@H](CCC(=O)O)C(=O)N[C@@H](Cc1ccccc1)C(=O)O (HELM PEPTIDE1{E.V.L.[O=C([C@H](O)[C@H](Cc1ccccc1)N[*:1])[*:2]].D.A.E.F}$$$$V2.0)
65%	CC(C)C[C@H](NC(=O)[C@@H](NC(=O)[C@@H](N)CCC(=O)O)C(C)C)C(=O)N[C@@H](Cc1ccccc1)[C@@H](O)C(=O)N[C@@H](CC(=O)O)C(=O)N[C@@H](C)C(=O)N[C@@H](CCC(=O)O)C(=O)NCC(=O)O (HELM PEPTIDE1{E.V.L.[O=C([C@H](O)[C@H](Cc1ccccc1)N[*:1])[*:2]].D.A.E.G}$$$$V2.0)
60%	CC(C)C[C@H](NC(=O)[C@@H](NC(=O)[C@@H](N)CCC(=O)O)C(C)C)C(=O)N[C@@H](Cc1ccccc1)[C@@H](O)C(=O)N[C@@H](CC(=O)O)C(=O)N[C@@H](C)C(=O)N[C@@H](CCC(=O)O)C(=O)O (HELM PEPTIDE1{E.V.L.[O=C([C@H](O)[C@H](Cc1ccccc1)N[*:1])[*:2]].D.A.E}$$$$V2.0)
46%	CC(C)C[C@H](NC(=O)[C@@H](NC(=O)[C@@H](N)CCC(=O)O)C(C)C)C(=O)N[C@@H](Cc1ccccc1)[C@@H](O)C(=O)N[C@@H](CC(=O)O)C(=O)N[C@@H](C)C(=O)O (HELM PEPTIDE1{E.V.L.[O=C([C@H](O)[C@H](Cc1ccccc1)N[*:1])[*:2]].D.A}$$$$V2.0)
73%	CC(C)C[C@H](NC(=O)[C@@H](NC(=O)[C@@H](N)CCC(=O)O)C(C)C)C(=O)N[C@@H](Cc1ccccc1)[C@@H](O)C(=O)N[C@@H](CC(=O)O)C(=O)NCC(=O)N[C@@H](CCC(=O)O)C(=O)N[C@@H](Cc1ccccc1)C(=O)O (HELM PEPTIDE1{E.V.L.[O=C([C@H](O)[C@H](Cc1ccccc1)N[*:1])[*:2]].D.G.E.F}$$$$V2.0)
61%	CC(C)C[C@H](NC(=O)[C@@H](NC(=O)[C@@H](N)CCC(=O)O)C(C)C)C(=O)N[C@@H](Cc1ccccc1)[C@@H](O)C(=O)N[C@@H](CC(=O)O)C(=O)O (HELM PEPTIDE1{E.V.L.[O=C([C@H](O)[C@H](Cc1ccccc1)N[*:1])[*:2]].D}$$$$V2.0)
54%	CC(C)C[C@H](NC(=O)[C@@H](NC(=O)[C@@H](N)CCC(=O)O)C(C)C)C(=O)N[C@@H](Cc1ccccc1)[C@@H](O)C(=O)NCC(=O)N[C@@H](C)C(=O)N[C@@H](CCC(=O)O)C(=O)N[C@@H](Cc1ccccc1)C(=O)O (HELM PEPTIDE1{E.V.L.[O=C([C@H](O)[C@H](Cc1ccccc1)N[*:1])[*:2]].G.A.E.F}$$$$V2.0)
< 20%	CC(C)C[C@H](NC(=O)[C@@H](NC(=O)CN)C(C)C)C(=O)N[C@@H](Cc1ccccc1)[C@@H](O)C(=O)N[C@@H](CC(=O)O)C(=O)N[C@@H](C)C(=O)N[C@@H](CCC(=O)O)C(=O)N[C@@H](Cc1ccccc1)C(=O)O (HELM PEPTIDE1{G.V.L.[O=C([C@H](O)[C@H](Cc1ccccc1)N[*:1])[*:2]].D.A.E.F}$$$$V2.0)
< 20%	CC(C)C[C@H](N)C(=O)N[C@@H](Cc1ccccc1)[C@@H](O)C(=O)N[C@@H](CC(=O)O)C(=O)N[C@@H](C)C(=O)N[C@@H](CCC(=O)O)C(=O)N[C@@H](Cc1ccccc1)C(=O)O (HELM PEPTIDE1{L.[O=C([C@H](O)[C@H](Cc1ccccc1)N[*:1])[*:2]].D.A.E.F}$$$$V2.0)
< 20%	CC(C)C[C@H](NC(=O)[C@@H](NC(=O)[C@@H](N)CCC(N)=O)C(C)C)C(=O)N[C@@H](Cc1ccccc1)[C@@H](O)C(=O)N[C@@H](CC(=O)O)C(=O)N[C@@H](C)C(=O)N[C@@H](CCC(=O)O)C(=O)O (HELM PEPTIDE1{Q.V.L.[O=C([C@H](O)[C@H](Cc1ccccc1)N[*:1])[*:2]].D.A.E}$$$$V2.0)
< 20%	CC(C)C[C@H](NC(=O)[C@@H](N)C(C)C)C(=O)N[C@@H](Cc1ccccc1)[C@@H](O)C(=O)N[C@@H](CC(=O)O)C(=O)N[C@@H](C)C(=O)N[C@@H](CCC(=O)O)C(=O)N[C@@H](Cc1ccccc1)C(=O)O (HELM PEPTIDE1{V.L.[O=C([C@H](O)[C@H](Cc1ccccc1)N[*:1])[*:2]].D.A.E.F}$$$$V2.0)
43%	CC(C)C[C@H](NC(=O)[C@@H](NC(=O)[C@@H](N)CCCC(=O)O)C(C)C)C(=O)N[C@@H](Cc1ccccc1)[C@@H](O)C(=O)N[C@@H](CC(=O)O)C(=O)N[C@@H](C)C(=O)N[C@@H](CCC(=O)O)C(=O)O (HELM PEPTIDE1{[N[C@@H](CCCC(=O)O)C(=O)[*:2]].V.L.[O=C([C@H](O)[C@H](Cc1ccccc1)N[*:1])[*:2]].D.A.E}$$$$V2.0)
< 20%	C[C@H](NC(=O)[C@H](CC(=O)O)NC(=O)[C@H](O)[C@@H](N)Cc1ccccc1)C(=O)N[C@@H](CCC(=O)O)C(=O)N[C@@H](Cc1ccccc1)C(=O)O (HELM PEPTIDE1{[N[C@@H](Cc1ccccc1)[C@@H](O)C(=O)[*:2]].D.A.E.F}$$$$V2.0)
< 20%	CC(C)C[C@H](NC(=O)[C@@H](NC(=O)CCCC(=O)O)C(C)C)C(=O)N[C@@H](Cc1ccccc1)[C@@H](O)C(=O)N[C@@H](CC(=O)O)C(=O)N[C@@H](C)C(=O)N[C@@H](CCC(=O)O)C(=O)O (HELM PEPTIDE1{[O=C(O)CCCC(=O)[*:2]].V.L.[O=C([C@H](O)[C@H](Cc1ccccc1)N[*:1])[*:2]].D.A.E}$$$$V2.0)
82%	CC(C)C[C@H](NC(=O)[C@@H](NC(=O)[C@@H](N)CCC(=O)O)C(C)C)C(=O)N[C@@H](Cc1ccccc1)[C@@H](O)C(=O)Nc1cccc(C(=O)O)c1 (mixture of isomers)
34%	CC(C)C[C@H](NC(=O)[C@@H](NC(=O)[C@@H](N)CCC(=O)O)C(C)C)C(=O)N[C@@H](Cc1ccccc1)[C@@H](O)C(=O)O (mixture of isomers)
< 20%	CC(C)C[C@H](NC(=O)CNC(=O)[C@@H](N)CCC(=O)O)C(=O)N[C@@H](Cc1ccccc1)C(O)C(=O)N[C@@H](CC(=O)O)C(=O)NC(C)C(=O)N[C@@H](CCC(=O)O)C(=O)N[C@@H](Cc1ccccc1)C(=O)O (single isomer, unassigned)
56%	CC(C)C[C@H](NC(=O)[C@@H](NC(=O)[C@@H](N)CCC(=O)O)C(C)C)C(=O)N[C@@H](Cc1ccccc1)[C@@H](O)C(=O)N[C@@H](CC(=O)O)C(=O)NC(C)C(=O)NCC(=O)N[C@@H](Cc1ccccc1)C(=O)O (single isomer, unassigned)
